Assays:
[1] = biological target: T1, Rhizobium meliloti anthranilate synthase, monomeric (SEQ ID NO: 7) (Rhizobium meliloti, UniProt P15395); experiment: Activity assay of crude cell extract by HPLC; type: biochemical; details: BL-21 cells with pMON66596, HPLC, read-out: ICso (trp)
T1 construct: made in house; host or cells: E. coli BL-21, plasmid pMON66596 (pSE280)
T1 sequence (P15395 1-729): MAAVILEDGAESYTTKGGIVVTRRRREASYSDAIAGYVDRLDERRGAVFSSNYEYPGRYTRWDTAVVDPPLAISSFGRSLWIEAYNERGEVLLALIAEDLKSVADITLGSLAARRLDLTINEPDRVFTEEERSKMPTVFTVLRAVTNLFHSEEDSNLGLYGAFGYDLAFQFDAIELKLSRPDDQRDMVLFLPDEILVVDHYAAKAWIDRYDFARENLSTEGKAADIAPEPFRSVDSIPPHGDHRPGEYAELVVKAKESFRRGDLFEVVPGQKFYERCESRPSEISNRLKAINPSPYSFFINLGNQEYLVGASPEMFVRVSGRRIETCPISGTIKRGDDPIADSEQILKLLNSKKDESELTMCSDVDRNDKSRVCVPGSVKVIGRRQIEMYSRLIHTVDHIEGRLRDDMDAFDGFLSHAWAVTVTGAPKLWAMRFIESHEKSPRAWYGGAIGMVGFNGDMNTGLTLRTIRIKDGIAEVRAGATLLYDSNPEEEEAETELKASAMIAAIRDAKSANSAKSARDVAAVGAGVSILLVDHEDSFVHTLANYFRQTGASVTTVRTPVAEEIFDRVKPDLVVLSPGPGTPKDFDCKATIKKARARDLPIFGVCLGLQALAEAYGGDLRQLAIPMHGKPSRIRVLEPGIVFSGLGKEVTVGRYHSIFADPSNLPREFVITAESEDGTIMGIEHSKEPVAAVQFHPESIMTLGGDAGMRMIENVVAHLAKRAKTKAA
Description: pMON66596 was transformed into BL-21 cells and induced with IPTG to express protein.

[2] = tested on: Ruta graveolens anthranilate synthase; details: Bohlmann et al. 1996; cited from earlier work

N[C@@H](Cc1c[nH]c2ccccc12)C(=O)O [tryptophan, L-tryptophan]
IC50 [1]: ~10 µM

B1: Ruta graveolens anthranilate synthase α-subunit: Ruta graveolens anthranilate synthase α-subunit isoenzyme, Genbank GI 960291 (protein, listed as Ruta graveolens)
chain: MSAAATSMQSLKFSNRLVPPSRRLSPVPNNVTCNNLPKSAAPVRTVKCCASSWNSTINGAAATTNGASAASNGASTTTTTYVSDATRFIDSSKRANLVPLYRCIFADHLTPVLAYRCLVQEDDKETPSFLFESVEPGRISTVGRYSVVGAHPVMEVIAKDNMVTVMDHEKGSLVEEVVDDPMEIPRRISEDWKPQIIDDLPEAFCGGWVGFFSYDTVRYVEKKKLPFSKAPQDDRNLADMHLGLYNDVIVFDHVEKKVYVIHWVRLNQQSSEEKAYAEGLEHLERLVSRVQDENTPRLAPGSIDLHTGHFGPPLKKSNMTCEEYKMAVLAAKEHIQAGDIFQIVLSQRFERRTFADPFEVYRALRVVNPSPYMTYMQARGCVLVASSPEILTRVKKNKIVNRPLAGTARRGRTTEEDEMLETQLLKDAKQCAEHVMLVDLGRNDVGKVSKSGSVKVEKLMNVERYSHVMHISSTVTGELQDNLSCWDALRAALPVGTVSGAPKVKAMELIDELEVNRRGPYSGGFGGISFTGDMDIALALRTIVFQTGTRYDTMYSYKNATKRRQWVAYLQAGAGIVADSDPDDEHRECQNKAAGLARAIDLAESAFVNKSSS
sensitivity to tryptophan inhibition [2]: less sensitive to tryptophan inhibition
